ChEMBL document CHEMBL5131471, “Design, synthesis and mechanism studies of novel dual PARP1/BRD4 inhibitors against pancreatic cancer” (Eur J Med Chem, 2022)
Calls of active or inactive are those of the source. The calls are words filed in the database; no cut-off is given here.

Key:
[1] = system: SW1990; assay: Antiproliferative activity against human SW1990 cells assessed as inhibition of cell growth measured after 7 days by MTT assay; format: functional, cell-based; settings: SW1990, 168 h
[2] = system: SW1990; assay: Upregulation of PARP1 expression in human SW1990 cells at 6 uM measured after 4 days by Western blot analysis; format: functional, cell-based; settings: time 4.0 day
[3] = system: CFPAC-1; assay: Antiproliferative activity against human CFPAC-1 cells assessed as inhibition of cell growth measured after 5 days by MTT assay; format: functional, cell-based; settings: CFPAC-1, 120 h
[4] = system: SW1990; assay: Downregulation of Ki67 expression in human SW1990 cells at 45 mg/kg, ip measured after 28 days by immuno histochemical staining based fluorescence microscopic analysis; format: functional, organism-based; settings: time 28.0 day
[5] = system: HCT-116; assay: Antiproliferative activity against BRCA2-mutated human HCT-116 cells assessed as inhibition of cell growth measured after 7 days by MTT assay; format: functional, cell-based; settings: HCT-116, 168 h
[6] = system: SW1990; assay: Antiproliferative activity against human SW1990 cells assessed as inhibition of cell growth after 3 days by MTT assay; format: functional, cell-based; settings: SW1990, 72 h
[7] = system: THP-1; assay: Antiproliferative activity against human THP-1 cells expressing BRD4 assessed as inhibition of cell growth measured after 3 days by MTT assay; format: functional, cell-based; settings: THP-1, 72 h
[8] = system: SW1990; assay: Induction of apoptosis in human SW1990 cells assessed as late apoptotic cells at 6 uM measured after 4 days by Annexin V-FITC and propidium iodide staining based flow cytometry (reference value: 7.23%); format: functional; settings: time 4 day
[9] = system: CFPAC-1; assay: Antiproliferative activity against human CFPAC-1 cells assessed as inhibition of cell growth measured after 3 days by MTT assay; format: functional, cell-based; settings: CFPAC-1, 72 h
[10] = system: SW1990; assay: Effect on HEXIM1 gene expression in human SW1990 cells at 6 uM by Q-PCR analysis; format: functional, cell-based
[11] = system: SW1990; assay: Induction of apoptosis in human SW1990 cells assessed as early apoptotic cells at 6 uM measured after 4 days by Annexin V-FITC and propidium iodide staining based flow cytometry (reference value: 1.62%); format: functional; settings: time 4 day
[12] = system: CAPAN-1; assay: Antiproliferative activity against human CAPAN-1 cells assessed as inhibition of cell growth measured after 7 days by MTT assay; format: functional, cell-based; settings: CAPAN-1, 168 h
[13] = system: CAPAN-1; assay: Antiproliferative activity against human CAPAN-1 cells assessed as inhibition of cell growth measured after 5 days by MTT assay; format: functional, cell-based; settings: CAPAN-1, 120 h
[14] = system: Mus musculus; assay: Upregulation of BRD4 expression in nude mouse xenografted with human SW1990 cells at 45 mg/kg, ip measured after 28 days by DAPI staining based laser confocal microscopic analysis; format: functional, organism-based; settings: time 28.0 day
[15] = system: SW1990; assay: Antiproliferative activity against human SW1990 cells assessed as inhibition of cell growth measured after 5 days by MTT assay; format: functional, cell-based; settings: SW1990, 120 h
[16] = system: MDA-MB-468; assay: Antiproliferative activity against BRCA-proficient human MDA-MB-468 cells assessed as inhibition of cell growth measured after 7 days by MTT assay; format: functional, cell-based; settings: MDA-MB-468, 168 h
[17] = system: CAPAN-1; assay: Antiproliferative activity against human CAPAN-1 cells assessed as inhibition of cell growth measured after 3 days by MTT assay; format: functional, cell-based; settings: CAPAN-1, 72 h
[18] = system: Mus musculus; assay: Upregulation of […] expression in nude mouse xenografted with human SW1990 cells at 45 mg/kg, ip measured after 28 days by DAPI staining based laser confocal microscopic analysis; format: functional, organism-based; settings: time 28.0 day
[19] = system: CFPAC-1; assay: Antiproliferative activity against human CFPAC-1 cells assessed as inhibition of cell growth measured after 7 days by MTT assay; format: functional, cell-based; settings: CFPAC-1, 168 h
[20] = system: SW1990; assay: Induction of BRCA1 accumulation in nucleus of human SW1990 cells at 6 uM measured after 4 days by Western blot analysis; format: functional, cell-based; settings: time 4.0 day
[21] = system: SW1990; assay: Effect on CDK1 gene expression in human SW1990 cells at 1 uM in presence of Olaparib by Q-PCR analysis; format: functional, cell-based
[22] = Toxicity in nude mouse xenografted with human SW1990 cells assessed as lung damage at 15 mg/kg, ip administered for 28 days in presence of 45 mg/kg Olaparib by H and E staining based fluorescence microscopic analysis; format: organism-based; settings: in vivo, 672 h, time 28 day
[23] = system: SW1990; assay: Effect on CDC25B gene expression in human SW1990 cells at 1 uM in presence of Olaparib by Q-PCR analysis; format: functional, cell-based
[24] = Toxicity in nude mouse xenografted with human SW1990 cells assessed as liver damage at 15 mg/kg, ip administered for 28 days by H and E staining based fluorescence microscopic analysis; format: organism-based; settings: in vivo, 672 h, time 28 day
[25] = system: SW1990; assay: Effect on E2F2 gene expression in human SW1990 cells at 1 uM in presence of Olaparib by Q-PCR analysis; format: functional, cell-based
[26] = system: CFPAC-1; assay: Antiproliferative activity against human CFPAC-1 cells assessed as inhibition of cell growth measured after 4 days by MTT assay; format: functional, cell-based; settings: CFPAC-1, 96 h
[27] = system: SW1990; assay: Effect on FOXM1 gene expression in human SW1990 cells at 1 uM in presence of Olaparib by Q-PCR analysis; format: functional, cell-based
[28] = system: SW1990; assay: Effect on BRCA1 gene expression in human SW1990 cells at 1 to 2 uM by Q-PCR analysis; format: functional, cell-based; settings: dose 1-2 µM
[29] = system: SW1990; assay: Inhibition of CDK6 protein expression in human SW1990 cells at 1 to 2 uM measured after 4 days by Western blot analysis; format: functional, cell-based; settings: dose 1-2 µM, time 4.0 day
[30] = system: SW1990; assay: Effect on CDK1 to 2 gene expression in human SW1990 cells at 1 to 2 uM by Q-PCR analysis; format: functional, cell-based; settings: dose 1-2 µM
[31] = system: SW1990; assay: Induction of apoptosis in human SW1990 cells assessed as necrotic cells at 1 uM measured after 4 days by Annexin V-FITC and propidium iodide staining based flow cytometry (reference value: 2.45%); format: functional; settings: time 4 day
[32] = system: CAPAN-1; assay: Antiproliferative activity against human CAPAN-1 cells assessed as inhibition of cell growth measured after 4 days by MTT assay; format: functional, cell-based; settings: CAPAN-1, 96 h
[33] = biological target: Bromodomain-containing protein 4 (Homo sapiens, UniProt O60885); assay: Inhibition of BRD4-BD1/2 (unknown origin)
[34] = system: Mus musculus; assay: Inhibition of PARP1 expression in nude mouse xenografted with human […] cells at 30 mg/kg, ip administered for 28 days by Q-PCR analysis; format: functional, organism-based; settings: time 28.0 day
[35] = system: Mus musculus; assay: Inhibition of CDC25B expression in nude mouse xenografted with human SW1990 cells at 30 mg/kg, ip measured after 4 days by Q-PCR analysis; format: functional, organism-based; settings: time 4.0 day
[36] = system: Mus musculus; assay: Inhibition of CCND1 expression in nude mouse xenografted with human SW1990 cells at 30 mg/kg, ip measured after 4 days by Western blot analysis; format: functional, organism-based; settings: time 4.0 day
[37] = system: SW1990; assay: Effect on FOXM1 gene expression in human SW1990 cells at 1 to 2 uM by Q-PCR analysis; format: functional, cell-based; settings: dose 1-2 µM
[38] = system: Mus musculus; assay: Inhibition of CDC25B expression in nude mouse xenografted with human SW1990 cells at 30 mg/kg, ip measured after 4 days by Western blot analysis; format: functional, organism-based; settings: time 4.0 day
[39] = system: Mus musculus; assay: Inhibition of E2F2 expression in nude mouse xenografted with human SW1990 cells at 30 mg/kg, ip measured after 4 days by Western blot analysis; format: functional, organism-based; settings: time 4.0 day

Row | SMILES | IC50 [1] | IC50 [3] | IC50 [5] | IC50 [6] | IC50 [7] | IC50 [9] | IC50 [12] | IC50 [15] | IC50 [16] | IC50 [17] | IC50 [19] | IC50 ([13]; read-out: IC50) | IC50 [26] | also measured
1 | O=C(c1cc(Cc2n[nH]c(=O)c3ccccc23)ccc1F)N1CCN(C(=O)C2CC2)CC1 [OLAPARIB] | 3.63 µM | 9.87 µM | 7.32 µM | 19.4 µM | 32.3 µM | 28.7 µM | 2.61 µM | 4.93 µM | 1.83 µM | 25.2 µM | 7.44 µM |  |  | Activity [2]: Active; Activity [4]: Active; Activity [8]: 22.9%; Activity [10]: Active; Activity [11]: 1.84%; IC50 [13]: 5.34 µM; Activity [14]: Active; Activity [18]: Active; Activity [20]: Active
2 | Cc1sc2c(c1C)C(c1ccc(Cl)cc1)=N[C@@H](CC(=O)OC(C)(C)C)c1nnc(C)n1-2 | 0.63 µM |  | 2.03 µM | 31.6 µM | 0.33 µM | 13.9 µM | 0.45 µM | 1.11 µM | 0.54 µM | 24.1 µM | 0.35 µM | 0.58 µM | 1.86 µM | Activity [21]: Active; Activity [22]: Non-Toxic; Activity [23]: Active; Activity [24]: Non-Toxic; Activity [25]: Active; Activity [27]: Active
3 | Cc1noc(C)c1-c1ccc2c(c1)C(c1ccccc1)N(Cc1nc3c(C(N)=O)cccc3[nH]1)C(=O)N2C (stereo not drawn) | 0.56 µM | 0.98 µM | 1.44 µM | 11.7 µM | 0.43 µM | 2.43 µM | 0.17 µM | 0.98 µM | 0.09 µM | 7.21 µM | 0.21 µM | 0.41 µM | 1.31 µM | Activity [28]: Active; inhibition [29]: Active; Activity [30]: Active; Activity [31]: 3.62%; IC50 [32]: 1.71 µM; IC50 [33]: 0.202 µM; inhibition [34]: Active; inhibition [35]: Active; inhibition [36]: Active; Activity [37]: Active; inhibition [38]: Active; inhibition [39]: Active
